Assay results taken from PubChem BioAssay (NCI).
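A five-concentration, 48-hour dose response in 96-well plates underlies each endpoint, interpolated linearly between surrounding concentrations. GI50 marks 50% less growth. The concentration for full growth arrest is given as TGI.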

Columns and labels:
Assay in all cases: NCI-60 cell line screen, 48 h
MDA-MB-435 = tested on: MDA-MB-435
T-47D breast = tested on: T-47D breast
MCF7 breast = tested on: MCF7 breast
HOP-18 NSCLC = tested on: HOP-18 NSCLC
M19-MEL melanoma = tested on: M19-MEL melanoma
SNB-78 CNS = tested on: SNB-78 CNS
MDA-N = tested on: MDA-N
RXF-631 renal = tested on: RXF-631 renal

## Cc1ccc(-n2c3c(c4c(CN5CCCCC5)c(O)ccc42)CCc2ccccc2C3=O)cc1
MDA-MB-435
  GI50: > 100000 nM
  TGI: > 100 µM
T-47D breast
  GI50: > 100 µM
  TGI: > 100 µM
MCF7 breast
  GI50: > 100000 nM
  TGI: > 100 µM

## CN(C)CC(C(=O)c1ccccc1)c1ccccc1 (stereo not given)
MDA-MB-435
  GI50: 1900 nM
  TGI: 7.38 µM
T-47D breast
  GI50: 2.03 µM
  TGI: 5.73 µM
MCF7 breast
  GI50: 1150 nM
  TGI: 3.35 µM

## CCOP(=O)(CCP(=O)(OCC)OCC)OCC.C[CH2][Sn]([Cl])([Cl])[CH2]C
MDA-MB-435
  GI50: > 100000 nM
  TGI: > 100 µM
HOP-18 NSCLC
  GI50: 20.7 µM
  TGI: 35 µM
M19-MEL melanoma
  GI50: 24.8 µM
  TGI: > 60.4 µM
SNB-78 CNS
  GI50: 17.2 µM
  TGI: 41.8 µM
MDA-N
  GI50: > 100 µM
  TGI: > 100 µM
T-47D breast
  GI50: 18.5 µM
  TGI: 40.9 µM
MCF7 breast
  GI50: 21600 nM
  TGI: 44.4 µM

## COc1cc2c(cc1OC)C(CCc1ccc(Cl)cc1)N(C)CC2 (stereo not given)
MDA-MB-435
  GI50: 16300 nM
  TGI: 41.2 µM
T-47D breast
  GI50: 23.8 µM
  TGI: 76.8 µM
MCF7 breast
  GI50: 21200 nM
  TGI: 47 µM

## c1cncc(CNc2ccccc2-c2nnc(Nc3ccc4c(c3)OCO4)o2)c1
T-47D breast
  GI50: 0.22 µM
  TGI: > 100 µM
MCF7 breast
  GI50: 39 nM
  TGI: > 100 µM

## COc1ccc(/C=C/C(=O)c2sc(N)nc2C)cc1
HOP-18 NSCLC
  TGI: > 100 µM
M19-MEL melanoma
  TGI: > 100 µM
SNB-78 CNS
  TGI: > 100 µM

## Cc1ccc(/C=C(\C#N)n2nnc3cc(Cl)c(Cl)cc32)cc1
MDA-MB-435
  GI50: 909 nM
  TGI: 6.8 µM
MCF7 breast
  GI50: 1880 nM
  TGI: > 100 µM

## COc1cc(CNC(=O)/C=C/C=C/c2ccc3c(c2)OCO3)ccc1OCc1cn(-c2ccc(Cl)c(Cl)c2)nn1
MDA-MB-435
  GI50: 2000 nM
  TGI: 4.75 µM
T-47D breast
  GI50: 1.17 µM
  TGI: 3.49 µM
MCF7 breast
  GI50: 889 nM
  TGI: 3.23 µM

## Clc1ccc(-c2nc3c(-c4ccc(Cl)cc4)nc(-c4ccccc4)cn3c2-c2ccc(Cl)cc2)cc1
MDA-MB-435
  GI50: > 50000 nM
  TGI: > 50 µM
T-47D breast
  GI50: > 50 µM
  TGI: > 50 µM
MCF7 breast
  GI50: > 50000 nM
  TGI: > 50 µM

## COC(=O)[C@]12CC[C@@H](C)[C@H](C)[C@@H]1C1=CC[C@@H]3[C@@]4(C)C[C@@H](OC(=O)c5ccco5)[C@H](O)[C@@](C)(CO)[C@@H]4[C@H](O)C[C@@]3(C)[C@]1(C)CC2
MDA-MB-435
  GI50: 2290 nM
  TGI: 5.75 µM
T-47D breast
  GI50: 3.13 µM
  TGI: 9.17 µM
MCF7 breast
  GI50: 1800 nM
  TGI: 3.71 µM

## CC(C)c1cc(C(C)C)c(S(=O)(=O)NN)c(C(C)C)c1
HOP-18 NSCLC
  TGI: > 100 µM
M19-MEL melanoma
  TGI: > 100 µM
SNB-78 CNS
  TGI: > 100 µM

## CCOC(=O)CC(=O)ON(C)C(=O)Cc1ccccc1
M19-MEL melanoma
  TGI: > 100 µM
SNB-78 CNS
  TGI: > 100 µM
RXF-631 renal
  TGI: > 100 µM

## C=CCC(C(=O)OC)C1(C(=O)OC)c2[nH]c3ccccc3c2CCN1Cc1ccccc1 (stereo not given)
M19-MEL melanoma
  TGI: > 100 µM

## COc1ccc(/C=C2\N=C(c3ccccc3)OC2=O)c(OCc2ccccc2)c1
HOP-18 NSCLC
  TGI: > 100 µM
M19-MEL melanoma
  TGI: > 100 µM

## CC(=O)CC(=O)CCCC(=O)Nc1ccc(Cl)cc1C
HOP-18 NSCLC
  TGI: > 100 µM
M19-MEL melanoma
  TGI: > 100 µM
SNB-78 CNS
  TGI: > 100 µM
RXF-631 renal
  TGI: > 100 µM

## COC1=C(OC)C(=O)C(/C=C(\C)C(=O)O)=C(C)C1=O
MDA-MB-435
  GI50: > 100000 nM
  TGI: > 100 µM
T-47D breast
  GI50: > 100 µM
  TGI: > 100 µM
MCF7 breast
  GI50: > 100000 nM
  TGI: > 100 µM
